Measurements: PubChem BioAssay AID1259408 (Genetic Toxicology Data Bank (GENE-TOX), 2018)
Calls of active or inactive are those of the source. No rule for the calls is given here.

System: GENE-TOX genotoxicity assays, various organisms and cells
Test: GENE-TOX mutagenicity studies
Conditions: for call: Assay Type: In vivo carcinogenicity studies
Source text: GENE-TOX provides genetic toxicology (mutagenicity) test data from expert peer review of open scientific literature for more than 3,000 chemicals from the United States Environmental Protection Agency (EPA). GENE-TOX was established to select assay systems for evaluation, review data in the scientific literature, and recommend proper testing protocols and evaluation procedures for these systems.
GENE-TOX covers the years 1991 - 1998. It is no longer updated.
This is an archive assay for GENE-TOX mutagenicity studies.

[1] = Species/Cell Type: Salmonella typhimurium (one or more of the five standard strains: TA98, TA100, TA1535, TA1537, and TA1538), Assay Type: Histidine reverse gene mutation, Ames assay, Assay Code: SAL+, Evaluation Type: Evaluation A (Pre-1980)
[2] = Species/Cell Type: Salmonella typhimurium (one or more of the five standard strains: TA98, TA100, TA1535, TA1537, and TA1538), Assay Type: Histidine reverse gene mutation, Ames assay, Assay Code: SAL+*, Activation: With metabolic activation, Evaluation Type: Evaluation A (Pre-1980)
[3] = Species/Cell Type: Saccharomyces cerevisiae, Assay Type: Mitotic recombination or gene conversion, Assay Code: YEH+, Evaluation Type: Evaluation A (Pre-1980)
[4] = Species/Cell Type: Escherichia coli polA (W3119 vs P3478), Assay Type: Rec-assay, DNA effects (bacterial DNA repair), Assay Code: RE1T, Evaluation Type: Evaluation A (Pre-1980)

Question: With Clc1ccc(Cl)cc1 as the molecule, how does the mutagenic call (Species/Cell Type: Allium cepa, Assay Type: Chromosome aberrations, Assay Code: ALC+, Evaluation Type: Evaluation A (Pre-1980)) read?
Answer: active; positive

Question: And the mutagenic call (Species/Cell Type: Mammalian polychromatic erythrocytes, Assay Type: Micronucleus test, chromosome aberrations, Assay Code: MNT+, Evaluation Type: Evaluation B (Post-1980))?
Answer: active; positive

Question: O=C(NO)c1ccccc1O was tested. Which mutagenic call [1] did it give?
Answer: active; positive

Question: With O=NN1CCCN(N=O)CC1 as the molecule, how does the mutagenic call [2] read?
Answer: active; positive

Question: What does the source list for Nc1ccc(/C=C/c2ccc([N+](=O)[O-])o2)nn1?
Answer: mutagenic call (Species/Cell Type: Glycine max (soybean), Assay Type: Gene mutation, Assay Code: GLM+, Evaluation Type: Evaluation A (Pre-1980)): active; positive; mutagenic call (Species/Cell Type: Human lymphocytes, Assay Type: Sister-chromatid exchange (SCE) in vitro, Assay Code: SCL+, Evaluation Type: Evaluation B (Post-1980)): active; positive; mutagenic call (Species/Cell Type: Human lymphocytes, Assay Type: Sister-chromatid exchange (SCE) in vitro, Assay Code: SCL+D, Dose Response: With dose response, Evaluation Type: Evaluation A (Pre-1980)): active; positive; mutagenic call (Species/Cell Type: Human, Assay Type: Sister-chromatid exchange (SCE) in vitro, Assay Code: SC1+, Evaluation Type: Evaluation B (Post-1980)): active; positive; mutagenic call (Species/Cell Type: Human, Assay Type: Sister-chromatid exchange (SCE) in vitro, Assay Code: SC1+D, Dose Response: With dose response, Evaluation Type: Evaluation A (Pre-1980)): active; positive; mutagenic call (Species/Cell Type: Saccharomyces cerevisiae, Assay Type: Forward and reverse gene mutation, mitotic recombination and gene conversion, DNA effects, body fluid assay, Assay Code: BFC+, Evaluation Type: Evaluation A (Pre-1980)): active; positive; mutagenic call (Species/Cell Type: Saccharomyces cerevisiae, Assay Type: Forward and reverse gene mutation, mitotic recombination and gene conversion, host-mediated assay, Assay Code: HME-, Evaluation Type: Evaluation A (Pre-1980)): inactive; negative; mutagenic call (Species/Cell Type: Saccharomyces cerevisiae, Assay Type: Mitotic recombination or gene conversion, Assay Code: YEC+, Evaluation Type: Evaluation A (Pre-1980)): active; positive; mutagenic call [3]: active; positive

Question: For O=[N+]([O-])c1cccc([N+](=O)[O-])c1Cl, which mutagenic call [4] is on record?
Answer: no conclusion

Question: Nc1nc(-c2cc([N+](=O)[O-])cs2)cs1 was tested. Which mutagenic call [1] did it give?
Answer: active; positive

Question: Which mutagenic call (Species/Cell Type: Human diploid fibroblasts, Assay Type: Unscheduled DNA synthesis (UDS) in vitro, DNA effects, Assay Code: UDH+, Evaluation Type: Evaluation A (Pre-1980)) does the source give for CCCCCCCCCCCCCC(=O)N(OC(C)=O)c1ccc2c(c1)Cc1ccccc1-2 here?
Answer: active; positive

Question: And the mutagenic call [1]?
Answer: active; positive

Question: For NC[C@H]1O[C@H](O[C@H]2[C@H](O[C@@H]3O[C@H](CO)[C@@H](O)[C@H]3O)[C@@H](O)[C@H](N)C[C@@H]2N)[C@H](N)[C@@H](O)[C@@H]1O, which mutagenic call (Species/Cell Type: Saccharomyces cerevisiae, Assay Type: Mitotic recombination or gene conversion, Assay Code: YEH-, Evaluation Type: Evaluation A (Pre-1980)) is on record?
Answer: inactive; negative

Question: CCCCOc1ccc(CC(=O)NOC(C)=O)cc1 was tested. Which mutagenic call (Species/Cell Type: Nonhuman, Assay Type: Sister-chromatid exchange (SCE) in vitro, Assay Code: SC2+, Evaluation Type: Evaluation B (Post-1980)) did it give?
Answer: active; positive

Question: How did the mutagenic call (Species/Cell Type: Neurospora crassa, Assay Type: Aneuploidy, chromosome aberrations, Assay Code: NEN-, Evaluation Type: Evaluation A (Pre-1980)) turn out when Nc1nc2n[nH]nc2c(=O)[nH]1 was run?
Answer: inactive; negative

Question: O[C@@H]1C=Cc2c(ccc3cc4c(ccc5ccccc54)cc23)[C@H]1O was tested. Which call (Species/Cell Type: Nonhuman, Assay Code: CCG+L, Evaluation Type: Evaluation A (Pre-1980)) did it give?
Answer: active; positive

Question: And the mutagenic call (Species/Cell Type: Nonhuman, Assay Type: Sister-chromatid exchange (SCE) in vitro, Assay Code: SC2+D, Dose Response: With dose response, Evaluation Type: Evaluation B (Post-1980))?
Answer: active; positive

Question: What about the mutagenic call [2] of the same molecule?
Answer: active; positive

Question: How did the mutagenic call (Species/Cell Type: Arabidopsis species, Assay Type: Gene mutation, Assay Code: ARM+D, Dose Response: With dose response, Evaluation Type: Evaluation A (Pre-1980)) turn out when CN(C)N=O was run?
Answer: active; positive

Question: And the mutagenic call (Species/Cell Type: Chinese hamster lung (V79) cells, Assay Type: Forward gene mutation at the HPRT or ouabain locus, Assay Code: V79+, Evaluation Type: Evaluation A (Pre-1980))?
Answer: active; positive

Question: And the mutagenic call (Species/Cell Type: Chinese hamster ovary (CHO) cells, Assay Type: Forward gene mutation at the HPRT locus, Assay Code: CHO+*, Activation: With metabolic activation, Evaluation Type: Evaluation B (Post-1980))?
Answer: active; positive

Question: And the mutagenic call (Species/Cell Type: Chinese hamster ovary (CHO) cells, Assay Type: Forward gene mutation at the HPRT locus, Assay Code: CHO+D, Dose Response: With dose response, Evaluation Type: Evaluation A (Pre-1980))?
Answer: active; positive

Question: And the mutagenic call (Species/Cell Type: Drosophila melanogaster, Assay Type: Sex-linked recessive lethal gene mutation, Assay Code: SRL+, Evaluation Type: Evaluation A (Pre-1980))?
Answer: active; positive

Question: And the mutagenic call (Species/Cell Type: Drosophila melanogaster, Sex: Male, Assay Type: Heritable translocation test, chromosome aberrations, Assay Code: DHT+, Evaluation Type: Evaluation A (Pre-1980))?
Answer: active; positive

Question: What about the mutagenic call (Species/Cell Type: Escherichia coli WP2, Assay Type: Tryptophan reverse gene mutation, Assay Code: WP2+*, Activation: With metabolic activation, Evaluation Type: Evaluation A (Pre-1980)) of the same molecule?
Answer: active; positive

Question: What about the mutagenic call (Species/Cell Type: Escherichia coli WP2 UVRA, Assay Type: Tryptophan reverse gene mutation, Assay Code: WPU+*, Activation: With metabolic activation, Evaluation Type: Evaluation A (Pre-1980)) of the same molecule?
Answer: active; positive

Question: What about the mutagenic call (Species/Cell Type: Escherichia coli polA (W3110 vs P3478), Assay Type: Rec-assay, DNA effects (bacterial DNA repair), Assay Code: RE2+, Evaluation Type: Evaluation A (Pre-1980)) of the same molecule?
Answer: active; positive

Question: What about the mutagenic call [4] of the same molecule?
Answer: no conclusion

Question: And the mutagenic call (Species/Cell Type: Fischer rat embryo (RLV/1706) cells, Assay Type: Cell transformation, viral enhanced, Assay Code: CTRT, Evaluation Type: Evaluation A (Pre-1980))?
Answer: no conclusion

Question: And the mutagenic call (Species/Cell Type: Human diploid fibroblasts, Assay Type: Unscheduled DNA synthesis (UDS) in vitro, DNA effects, Assay Code: UDH+D, Dose Response: With dose response, Evaluation Type: Evaluation A (Pre-1980))?
Answer: active; positive

Question: What about the mutagenic call (Species/Cell Type: Human lymphocytes, Assay Type: Sister-chromatid exchange (SCE) in vitro, Assay Code: SCL+D*, Activation: With metabolic activation, Dose Response: With dose response, Evaluation Type: Evaluation B (Post-1980)) of the same molecule?
Answer: active; positive

Question: And the mutagenic call (Species/Cell Type: Human, Assay Type: Sister-chromatid exchange (SCE) in vitro, Assay Code: SC1+D*, Activation: With metabolic activation, Dose Response: With dose response, Evaluation Type: Evaluation B (Post-1980))?
Answer: active; positive

Question: And the mutagenic call (Species/Cell Type: Mammalian germ cells, Sex: Male, Assay Type: Chromosome aberrations in vivo, Assay Code: CY9-, Evaluation Type: Evaluation A (Pre-1980))?
Answer: inactive; negative

Question: And the mutagenic call (Species/Cell Type: Mammalian polychromatic erythrocytes, Assay Type: Micronucleus test, chromosome aberrations, Assay Code: MNT+, Evaluation Type: Evaluation A (Pre-1980))?
Answer: active; positive

Question: And the mutagenic call (Species/Cell Type: Mouse germ cells, Sex: Male, Assay Type: Unscheduled DNA synthesis (UDS) in vivo, DNA effects, Assay Code: UDT-, Evaluation Type: Evaluation A (Pre-1980))?
Answer: inactive; negative

Question: What about the mutagenic call (Species/Cell Type: Mouse lymphoma (L5178Y) cells, Assay Type: Forward gene mutation at the thymidine kinase (TK) locus, chromosome aberrations, Assay Code: L51+*, Activation: With metabolic activation, Evaluation Type: Evaluation A (Pre-1980)) of the same molecule?
Answer: active; positive

Question: What about the mutagenic call (Species/Cell Type: Mouse, Sex: Female, Assay Type: Spot test, gene mutation, Assay Code: MSTT, Evaluation Type: Evaluation A (Pre-1980)) of the same molecule?
Answer: no conclusion

Question: What about the mutagenic call (Species/Cell Type: Mouse, Sex: Male, Assay Type: Sperm morphology, Assay Code: SPI-, Evaluation Type: Evaluation A (Pre-1980)) of the same molecule?
Answer: inactive; negative

Question: What about the mutagenic call (Species/Cell Type: Neurospora crassa, Assay Type: Forward gene mutation, Assay Code: NEF+*, Activation: With metabolic activation, Evaluation Type: Evaluation A (Pre-1980)) of the same molecule?
Answer: active; positive

Question: What about the mutagenic call (Species/Cell Type: Neurospora crassa, Assay Type: Reverse gene mutation, Assay Code: NER+, Evaluation Type: Evaluation A (Pre-1980)) of the same molecule?
Answer: active; positive

Question: What about the mutagenic call (Species/Cell Type: Nonhuman, Assay Type: Chromosome aberrations in vitro, Assay Code: CY&+D*, Activation: With metabolic activation, Dose Response: With dose response, Evaluation Type: Evaluation A (Pre-1980)) of the same molecule?
Answer: active; positive

Question: What about the call (Species/Cell Type: Nonhuman, Assay Code: CCG+, Evaluation Type: Evaluation A (Pre-1980)) of the same molecule?
Answer: active; positive

Question: And the mutagenic call (Species/Cell Type: Nonhuman, Assay Type: Sister-chromatid exchange (SCE) in vitro, Assay Code: SC2+D, Dose Response: With dose response, Evaluation Type: Evaluation A (Pre-1980))?
Answer: active; positive

Question: What about the mutagenic call (Species/Cell Type: Nonhuman, Assay Type: Sister-chromatid exchange (SCE) in vivo, Assay Code: SC3+D, Dose Response: With dose response, Evaluation Type: Evaluation A (Pre-1980)) of the same molecule?
Answer: active; positive

Question: And the mutagenic call (Species/Cell Type: Rat primary hepatocytes, Assay Type: Unscheduled DNA synthesis (UDS) in vitro, DNA effects, Assay Code: UDP+, Evaluation Type: Evaluation A (Pre-1980))?
Answer: active; positive

Question: And the mutagenic call (Species/Cell Type: Rodents, Sex: Male, Assay Type: Dominant lethal test, Assay Code: DLTT, Evaluation Type: Evaluation A (Pre-1980))?
Answer: no conclusion

Question: What about the mutagenic call (Species/Cell Type: Saccharomyces cerevisiae, Assay Type: Forward gene mutation, Assay Code: YEF+*, Activation: With metabolic activation, Evaluation Type: Evaluation A (Pre-1980)) of the same molecule?
Answer: active; positive

Question: And the mutagenic call (Species/Cell Type: Saccharomyces cerevisiae, Assay Type: Mitotic recombination or gene conversion, Assay Code: YEC+*, Activation: With metabolic activation, Evaluation Type: Evaluation A (Pre-1980))?
Answer: active; positive

Question: And the mutagenic call [3]?
Answer: active; positive

Question: What about the mutagenic call [2] of the same molecule?
Answer: active; positive

Question: What about the mutagenic call (Species/Cell Type: Salmonella typhimurium, Escherichia coli, Neurospora crassa, Saccharomyces cerevisiae, Chinese hamster ovary (CHO) and l, Assay Type: Forward and reverse gene mutation, chromosome aberrations, mitotic recombination and gene conversion, DNA effects, host-, Assay Code: HM4+, Evaluation Type: Evaluation A (Pre-1980)) of the same molecule?
Answer: active; positive

Question: And the mutagenic call (Species/Cell Type: Salmonella typhimurium, Assay Type: Forward and reverse gene mutation, body fluid assay, Assay Code: BFU+, Evaluation Type: Evaluation A (Pre-1980))?
Answer: active; positive

Question: And the mutagenic call (Species/Cell Type: Schizosaccharomyces pombe, Assay Type: Forward gene mutation, Assay Code: YEY+*, Activation: With metabolic activation, Evaluation Type: Evaluation A (Pre-1980))?
Answer: active; positive

Question: What about the mutagenic call (Species/Cell Type: Syrian hamster embryo (SHE) cells, Assay Type: Cell transformation, clonal assay, Assay Code: CTCT, Evaluation Type: Evaluation A (Pre-1980)) of the same molecule?
Answer: no conclusion
